The source of these data is US10093713B2, “GIP-GLP-1 dual agonist compounds and methods” (priority 2013, dated 2018).

In assay [1] the target is T1, human GIP R (Homo sapiens, UniProt P48546).
T1 construct: expressed in transfected cells
T1 sequence (P48546 22-466): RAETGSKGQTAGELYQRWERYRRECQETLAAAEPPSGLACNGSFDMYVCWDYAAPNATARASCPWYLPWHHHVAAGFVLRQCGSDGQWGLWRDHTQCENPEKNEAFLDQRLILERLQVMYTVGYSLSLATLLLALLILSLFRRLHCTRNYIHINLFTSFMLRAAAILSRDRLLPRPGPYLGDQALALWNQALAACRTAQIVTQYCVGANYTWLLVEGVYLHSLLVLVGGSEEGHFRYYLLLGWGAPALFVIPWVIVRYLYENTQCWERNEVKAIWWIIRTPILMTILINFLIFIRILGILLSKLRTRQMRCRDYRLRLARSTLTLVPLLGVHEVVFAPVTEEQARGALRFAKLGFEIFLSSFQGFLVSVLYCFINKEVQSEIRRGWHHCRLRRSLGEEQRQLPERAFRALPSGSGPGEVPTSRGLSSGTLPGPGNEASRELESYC
The experiment in a line: Human GIP receptor (GIP R) activity assay, cAMP induction (AlphaScreen) in HEK293 cells. It is filed as cell-based. The following applies: Table 3; most comprehensive data; read-out: hGIP-R cAMP EC50 average value. Put shortly:
(§1)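 Stable HEK293 clones expressing human GIP R or GLP-1 R, seeded 1 day before; cells washed in Tyrode's buffer (10 mM HEPES, pH 7.4), stimulated, then lysed. cAMP measured by AlphaScreen bead competition (1 h, room temperature, dark). EC50 = concentration giving half-maximal cAMP elevation, from curves of absolute cAMP (nM) vs log concentration.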
(Bead proximity is the source of the signal in Alpha formats.)

For assay [2], the target named is T2, human GLP-1 R (Homo sapiens, UniProt P43220).
T2 construct: expressed in transfected cells
T2 sequence (P43220 24-463): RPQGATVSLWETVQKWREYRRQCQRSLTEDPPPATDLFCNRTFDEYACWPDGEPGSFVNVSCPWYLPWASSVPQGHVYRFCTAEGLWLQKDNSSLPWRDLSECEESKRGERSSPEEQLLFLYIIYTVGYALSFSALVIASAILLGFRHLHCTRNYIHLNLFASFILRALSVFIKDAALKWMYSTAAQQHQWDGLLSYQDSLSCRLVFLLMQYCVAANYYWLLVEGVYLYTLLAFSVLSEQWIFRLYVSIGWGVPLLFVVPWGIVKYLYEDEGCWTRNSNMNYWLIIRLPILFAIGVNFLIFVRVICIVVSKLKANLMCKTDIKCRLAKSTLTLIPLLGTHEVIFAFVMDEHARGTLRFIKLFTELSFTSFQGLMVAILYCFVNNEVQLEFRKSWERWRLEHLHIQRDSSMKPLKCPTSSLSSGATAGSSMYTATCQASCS
The experiment in a line: Human GLP-1 receptor (GLP-1 R) activity assay, cAMP induction (AlphaScreen) in HEK293 cells. The following applies: Table 3; most comprehensive data; read-out: hGLP-1-R cAMP EC50 average value. It is filed as cell-based. Put shortly: as §1

Each structure is given as a SMILES string. *1 amine or outer side, *2 acyl side, *3 side chain or, on linkers, in order; H or OH if unused. Where a SMILES comes first, the peptide text is derived from it. Side-chain parts run from the residue outwards. [ ]: non-standard residue; d: D form. The star is where a group is joined. X1 = O=C(O)CCCCCCCCCCCCCCCCCCC(=O)N1CCN(CC(=O)*)CC1; C20 diacid = O=C(O)CCCCCCCCCCCCCCCCCCC(=O)*; C18 diacid = O=C(O)CCCCCCCCCCCCCCCCC(=O)*; γGlu = O=C(O)[C@H](CCC(=O)[*:2])N[*:1]; AEEA = NCCOCCOCC(=O)O; Aib = CC(C)(N)C(=O)O

As a reminder, the EC50 is the concentration that produces a half-maximal response. For `CC[C@H](C)[C@H](NC(=O)[C@H](CO)NC(=O)[C@H](Cc1ccc(O)cc1)NC(=O)[C@H](CC(=O)O)NC(=O)[C@H](CO)NC(=O)[C@@H](NC(=O)[C@H](Cc1ccccc1)NC(=O)[C@@H](NC(=O)CNC(=O)[C@H](CCC(=O)O)NC(=O)C(C)(C)NC(=O)[C@@H](N)Cc1ccc(O)cc1)[C@@H](C)O)[C@@H](C)O)C(=O)N[C@@H](C)C(=O)N[C@@H](CC(C)C)C(=O)N[C@@H](CC(=O)O)C(=O)N[C@@H](CCCCN)C(=O)N[C@@H](CCCCNC(=O)COCCOCCNC(=O)COCCOCCNC(=O)CC[C@H](NC(=O)CCCCCCCCCCCCCCCCCCC(=O)O)C(=O)O)C(=O)N[C@@H](C)C(=O)N[C@@H](CCC(N)=O)C(=O)N[C@@H](CCCCN)C(=O)N[C@@H](CCC(=O)O)C(=O)N[C@@H](Cc1ccccc1)C(=O)N[C@H](C(=O)N[C@@H](CCC(=O)O)C(=O)N[C@@H](Cc1c[nH]c2ccccc12)C(=O)N[C@@H](CC(C)C)C(=O)N[C@@H](CC(C)C)C(=O)N[C@@H](C)C(=O)N[C@@H](CCC(N)=O)C(=O)NCC(=O)N1CCC[C@H]1C(=O)N[C@@H](CO)C(=O)N[C@@H](CO)C(=O)NCC(=O)N[C@@H](C)C(=O)N1CCC[C@H]1C(=O)N1CCC[C@H]1C(=O)N1CCC[C@H]1C(=O)N[C@@H](CO)C(N)=O)C(C)C` [Compound 48] (H-Y[Aib]EGTFTSDYSIALDKK([AEEA-AEEA-γGlu-C20 diacid])AQKEFVEWLLAQGPSSGAPPPS-NH2), the figures for the concentration for a half-maximal effect (EC50) in assay [1] and in assay [2] were 0.006 nM and 0.052 nM, respectively.

Take `CC[C@H](C)[C@H](NC(=O)[C@H](CO)NC(=O)[C@H](Cc1ccc(O)cc1)NC(=O)[C@H](CC(=O)O)NC(=O)[C@H](CO)NC(=O)[C@@H](NC(=O)[C@H](Cc1ccccc1)NC(=O)[C@@H](NC(=O)CNC(=O)[C@H](CCC(=O)O)NC(=O)C(C)(C)NC(=O)[C@@H](N)Cc1ccc(O)cc1)[C@@H](C)O)[C@@H](C)O)C(=O)N[C@@H](C)C(=O)N[C@@H](CC(C)C)C(=O)N[C@@H](CC(=O)O)C(=O)N[C@@H](CCCCN)C(=O)N[C@@H](CCCCNC(=O)COCCOCCNC(=O)COCCOCCNC(=O)CC[C@H](NC(=O)CCCCCCCCCCCCCCCCCCC(=O)O)C(=O)O)C(=O)N[C@@H](C)C(=O)N[C@@H](CCC(N)=O)C(=O)N[C@@H](CCCCN)C(=O)N[C@@H](CCC(=O)O)C(=O)N[C@@H](Cc1ccccc1)C(=O)N[C@H](C(=O)N[C@@H](CCC(=O)O)C(=O)N[C@@H](Cc1c[nH]c2ccccc12)C(=O)N[C@@H](CC(C)C)C(=O)N[C@@H](CC(C)C)C(=O)N[C@@H](C)C(=O)N[C@@H](C)C(=O)NCC(=O)N1CCC[C@H]1C(=O)N[C@@H](CO)C(=O)N[C@@H](CO)C(=O)NCC(=O)N[C@@H](C)C(=O)N1CCC[C@H]1C(=O)N1CCC[C@H]1C(=O)N1CCC[C@H]1C(=O)N[C@@H](CO)C(N)=O)C(C)C` [Compound 49] (H-Y[Aib]EGTFTSDYSIALDKK([AEEA-AEEA-γGlu-C20 diacid])AQKEFVEWLLAAGPSSGAPPPS-NH2): the EC50 in assay [1] was found to be 0.009 nM; in assay [2], 0.053 nM.

Consider `CC[C@H](C)[C@H](NC(=O)[C@H](CO)NC(=O)[C@H](Cc1ccc(O)cc1)NC(=O)[C@H](CC(=O)O)NC(=O)[C@H](CO)NC(=O)[C@@H](NC(=O)[C@H](Cc1ccccc1)NC(=O)[C@@H](NC(=O)CNC(=O)[C@H](CCC(=O)O)NC(=O)C(C)(C)NC(=O)[C@@H](N)Cc1ccc(O)cc1)[C@@H](C)O)[C@@H](C)O)C(=O)N[C@@H](C)C(=O)N[C@@H](CC(C)C)C(=O)N[C@@H](CC(=O)O)C(=O)N[C@@H](CCCCN)C(=O)N[C@@H](CCCCNC(=O)COCCOCCNC(=O)COCCOCCNC(=O)CC[C@H](NC(=O)CCCCCCCCCCCCCCCCCCC(=O)O)C(=O)O)C(=O)N[C@@H](C)C(=O)N[C@@H](CCC(N)=O)C(=O)N[C@@H](CCCNC(=N)N)C(=O)N[C@@H](C)C(=O)N[C@@H](Cc1ccccc1)C(=O)N[C@H](C(=O)N[C@@H](CCC(=O)O)C(=O)N[C@@H](Cc1c[nH]c2ccccc12)C(=O)N[C@@H](CC(C)C)C(=O)N[C@@H](CC(C)C)C(=O)N[C@@H](C)C(=O)N[C@@H](CCC(N)=O)C(=O)NCC(=O)N1CCC[C@H]1C(=O)N[C@@H](CO)C(=O)N[C@@H](CO)C(=O)NCC(=O)N[C@@H](C)C(=O)N1CCC[C@H]1C(=O)N1CCC[C@H]1C(=O)N1CCC[C@H]1C(=O)N[C@@H](CO)C(N)=O)[C@@H](C)CC` [Compound 50] (H-Y[Aib]EGTFTSDYSIALDKK([AEEA-AEEA-γGlu-C20 diacid])AQRAFIEWLLAQGPSSGAPPPS-NH2), for which the values for the EC50 in assay [1] and in assay [2] were 0.007 nM and 0.015 nM, respectively.

`CC[C@H](C)[C@H](NC(=O)[C@H](CO)NC(=O)[C@H](Cc1ccc(O)cc1)NC(=O)[C@H](CC(=O)O)NC(=O)[C@H](CO)NC(=O)[C@@H](NC(=O)[C@H](Cc1ccccc1)NC(=O)[C@@H](NC(=O)CNC(=O)[C@H](CCC(=O)O)NC(=O)C(C)(C)NC(=O)[C@@H](N)Cc1ccc(O)cc1)[C@@H](C)O)[C@@H](C)O)C(=O)N[C@@H](C)C(=O)N[C@@H](CC(C)C)C(=O)N[C@@H](CC(=O)O)C(=O)N[C@@H](CCCCN)C(=O)N[C@@H](CCCCNC(=O)COCCOCCNC(=O)COCCOCCNC(=O)CC[C@H](NC(=O)CCCCCCCCCCCCCCCCC(=O)O)C(=O)O)C(=O)N[C@@H](C)C(=O)N[C@@H](CCC(N)=O)C(=O)N[C@@H](CCCNC(=N)N)C(=O)N[C@@H](C)C(=O)N[C@@H](Cc1ccccc1)C(=O)N[C@H](C(=O)N[C@@H](CCC(=O)O)C(=O)N[C@@H](Cc1c[nH]c2ccccc12)C(=O)N[C@@H](CC(C)C)C(=O)N[C@@H](CC(C)C)C(=O)N[C@@H](C)C(=O)N[C@@H](CCC(N)=O)C(=O)NCC(=O)N1CCC[C@H]1C(=O)N[C@@H](CO)C(=O)N[C@@H](CO)C(=O)NCC(=O)N[C@@H](C)C(=O)N1CCC[C@H]1C(=O)N1CCC[C@H]1C(=O)N1CCC[C@H]1C(=O)N[C@@H](CO)C(N)=O)C(C)C` [Compound 51] (H-Y[Aib]EGTFTSDYSIALDKK([AEEA-AEEA-γGlu-C18 diacid])AQRAFVEWLLAQGPSSGAPPPS-NH2): the figures for the EC50 in assay [1] and in assay [2] were 0.005 nM and 0.017 nM, respectively.

With `CC[C@H](C)[C@H](NC(=O)[C@H](CO)NC(=O)[C@H](Cc1ccc(O)cc1)NC(=O)[C@H](CC(=O)O)NC(=O)[C@H](CO)NC(=O)[C@@H](NC(=O)[C@H](Cc1ccccc1)NC(=O)[C@@H](NC(=O)CNC(=O)[C@H](CCC(=O)O)NC(=O)C(C)(C)NC(=O)[C@@H](N)Cc1ccc(O)cc1)[C@@H](C)O)[C@@H](C)O)C(=O)N[C@@H](C)C(=O)N[C@@H](CC(C)C)C(=O)N[C@@H](CC(=O)O)C(=O)N[C@@H](CCCCN)C(=O)N[C@@H](CCCCNC(=O)COCCOCCNC(=O)COCCOCCNC(=O)CN1CCN(C(=O)CCCCCCCCCCCCCCCCCCC(=O)O)CC1)C(=O)N[C@@H](C)C(=O)N[C@@H](CCC(N)=O)C(=O)N[C@@H](CCCNC(=N)N)C(=O)N[C@@H](C)C(=O)N[C@@H](Cc1ccccc1)C(=O)N[C@H](C(=O)N[C@@H](CCC(=O)O)C(=O)N[C@@H](Cc1c[nH]c2ccccc12)C(=O)N[C@@H](CC(C)C)C(=O)N[C@@H](CC(C)C)C(=O)N[C@@H](C)C(=O)N[C@@H](CCC(N)=O)C(=O)NCC(=O)N1CCC[C@H]1C(=O)N[C@@H](CO)C(=O)N[C@@H](CO)C(=O)NCC(=O)N[C@@H](C)C(=O)N1CCC[C@H]1C(=O)N1CCC[C@H]1C(=O)N1CCC[C@H]1C(=O)N[C@@H](CO)C(N)=O)C(C)C` [Compound 52] (H-Y[Aib]EGTFTSDYSIALDKK([AEEA-AEEA-X1])AQRAFVEWLLAQGPSSGAPPPS-NH2), the EC50 was found to be 0.01 nM in assay [1] and 0.012 nM in assay [2].

For the molecule `CC[C@H](C)[C@H](NC(=O)[C@H](CO)NC(=O)[C@H](Cc1ccc(O)cc1)NC(=O)[C@H](CC(=O)O)NC(=O)[C@H](CO)NC(=O)[C@@H](NC(=O)[C@H](Cc1ccccc1)NC(=O)[C@@H](NC(=O)CNC(=O)[C@H](CCC(=O)O)NC(=O)C(C)(C)NC(=O)[C@@H](N)Cc1ccc(O)cc1)[C@@H](C)O)[C@@H](C)O)C(=O)N[C@@H](C)C(=O)N[C@@H](CC(C)C)C(=O)N[C@@H](CC(=O)O)C(=O)N[C@@H](CCCCN)C(=O)N[C@@H](CCCCNC(=O)COCCOCCNC(=O)COCCOCCNC(=O)CN1CCN(C(=O)CCCCCCCCCCCCCCCCCCC(=O)O)CC1)C(=O)N[C@@H](C)C(=O)N[C@@H](CCC(N)=O)C(=O)N[C@@H](CCCCN)C(=O)N[C@@H](CCC(=O)O)C(=O)N[C@@H](Cc1ccccc1)C(=O)N[C@H](C(=O)N[C@@H](CCC(=O)O)C(=O)N[C@@H](Cc1c[nH]c2ccccc12)C(=O)N[C@@H](CC(C)C)C(=O)N[C@@H](CC(C)C)C(=O)N[C@@H](C)C(=O)N[C@@H](C)C(=O)NCC(=O)N1CCC[C@H]1C(=O)N[C@@H](CO)C(=O)N[C@@H](CO)C(=O)NCC(=O)N[C@@H](C)C(=O)N1CCC[C@H]1C(=O)N1CCC[C@H]1C(=O)N1CCC[C@H]1C(=O)N[C@@H](CO)C(N)=O)C(C)C` [Compound 53] (H-Y[Aib]EGTFTSDYSIALDKK([AEEA-AEEA-X1])AQKEFVEWLLAAGPSSGAPPPS-NH2), the results for the EC50 in assay [1] and in assay [2] were 0.006 nM and 0.014 nM, respectively.
